Source: article PMC5310922, “A high-throughput phenotypic screen identifies clofazimine as a potential treatment for cryptosporidiosis” (PLoS Neglected Tropical Diseases, 2017)
Like-named read-outs stand apart in the source and are kept apart here.

Assays:
[1] = HCT-8 host cell cytotoxicity, 48 h (nuclei count); conditions: human
Method: (§1) Cells were then plated (5 μL/well) into 1536-well assay plates at a density of 5.5×10^5 cells/mL (2,750 cells/well).
Plates were then washed twice with phosphate buffered saline (PBS). […] To prevent non-specific binding, the cells were blocked with SuperBlock™ T20 blocking agent (Thermo) for 1 h at room temperature. Cryptosporidium parasites were stained with 1 μg/mL fluorescein isothiocyanate (FITC)-conjugated Vicia villosa lectin (Vector Laboratories) in 1:10 diluted SuperBlock™ in PBS-T, supplemented with 3 μM 4',6-diamidino-2-phenylindole (DAPI) to visualize host cell nuclei. Staining was for 1 h at room temperature in the dark. Finally, cells were washed twice with PBS-T and the plates were sealed with adhesive foil. The plates were imaged with a CellInsight CX5 High Content Screening Platform (Thermo) with a 10× objective. […] For 1536-well format assays (primary screening, triplicate reconfirmation, and dose-response reconfirmation, one microscopic field (802,511.39 μm^2) per well, and for the 384-well washout assay, 4 fields per well were captured. The software identified primary objects (HCT-8 host cells) and spots within allowed distances to the nuclei (Cryptosporidium). Both cytotoxicity against HCT-8 cells (number of nuclei relative to DMSO-treated controls) and Cryptosporidium inhibition (spot counts relative to DMSO-treated controls) were assessed.
Images were processed by the HCS Studio Scan software, and Selected Object Count (HCT-8 cells) and Spot Count (Cryptosporidium) were analyzed in Genedata Screener (v13.0-Standard). Spot Count and Selected Object Count were normalized to neutral controls minus inhibitors (floxuridine for Spot Count, and puromycin for Selected Object Count). For single-point primary assay plates, an additional run-wise median correction was applied to reduce screen artifacts (e.g. uneven dispense), whereas no correction was applied to triplicate reconfirmation and dose-response plates. For primary screening, a compound is considered a hit by a ≥ 70% reduction in Corrected Spot Count. Compounds that caused moderate cytotoxicity were filtered out (i.e., excluding all Corrected Selected Object Counts ≤ -60%). Dose-response curves were fit with Genedata Analyzer using the Smart Fit function.

[2] = system: Cryptosporidium hominis (TU502); assay: C. hominis proliferation in HCT-8 cells, 48 h high-content imaging assay; format: cell-based; conditions: Cryptosporidium hominis
Method: Methods for continuous, in vitro cultivation of Cryptosporidium spp. have not been well established. Instead, in vivo oocyst propagation of C. parvum is performed in calves, a more promiscuous Cryptosporidium species for animal and human infections. For C. hominis, gnotobiotic piglets are the primary means of propagation. The calf is the more accessible model, making C. parvum the more convenient species to screen. However, C. hominis is equally clinically relevant with regards to human cryptosporidiosis. […] High purity powders of the 10 filtered C. parvum Bioactives screen hits and both GHCDL screen hits were tested against C. hominis (TU502) to confirm activity against both species.
as §1
C. parvum oocysts (Iowa strain, isolated from infected calves) were purchased from the Sterling Parasitology Laboratory, University of Arizona, and stored at 4°C for ≤ 3 months in an antibiotic solution (0.01% Tween 20 containing 100 U/mL penicillin and 100 μg/mL gentamicin). C. hominis oocysts (TU502, isolated from gnotobiotic piglets) were purchased from the Tzipori Laboratory, Cummings School of Veterinary Medicine, Tufts University, and stored at 4°C for ≤ 2 weeks in an antibiotic solution (100 U/mL penicillin and 100 μg/mL streptomycin). For infection of assay plates, 24 h after cell seeding, oocysts were excysted and prepared for inoculation as previously described. Briefly, the oocysts were diluted into 1 mL pre-warmed 10 mM HCl and then incubated in a 37°C water bath for 10 min. Oocysts were then pelleted at 3,000×g for 1 min in a microcentrifuge (Thermo), and the supernatant was carefully aspirated. Oocysts were resuspended in 2 mM sodium taurocholate in DPBS++ (with 0.9 mM CaCl2 and 0.5 mM MgCl2) and incubated at room temperature for 20 min. After incubation in bile salts, the oocysts were diluted 1:100 and free sporozoites and intact oocysts were enumerated to determine the percentage of excystation.
Plates were then washed twice with phosphate buffered saline (PBS). […] To prevent non-specific binding, the cells were blocked with SuperBlock™ T20 blocking agent (Thermo) for 1 h at room temperature. Cryptosporidium parasites were stained with 1 μg/mL fluorescein isothiocyanate (FITC)-conjugated Vicia villosa lectin (Vector Laboratories) in 1:10 diluted SuperBlock™ in PBS-T, supplemented with 3 μM 4',6-diamidino-2-phenylindole (DAPI) to visualize host cell nuclei. Staining was for 1 h at room temperature in the dark. Finally, cells were washed twice with PBS-T and the plates were sealed with adhesive foil. The plates were imaged with a CellInsight CX5 High Content Screening Platform (Thermo) with a 10× objective. […] The software identified primary objects (HCT-8 host cells) and spots within allowed distances to the nuclei (Cryptosporidium). Both cytotoxicity against HCT-8 cells (number of nuclei relative to DMSO-treated controls) and Cryptosporidium inhibition (spot counts relative to DMSO-treated controls) were assessed.
Images were processed by the HCS Studio Scan software, and Selected Object Count (HCT-8 cells) and Spot Count (Cryptosporidium) were analyzed in Genedata Screener (v13.0-Standard). Spot Count and Selected Object Count were normalized to neutral controls minus inhibitors (floxuridine for Spot Count, and puromycin for Selected Object Count).

[3] = system: Cryptosporidium parvum; assay: C. parvum proliferation in HCT-8 cells, 48 h high-content imaging assay; format: cell-based, Cryptosporidium parvum (Iowa strain); conditions: for EC50: Cryptosporidium parvum, 48 h; for EC99 against C. parvum: concentration used in washout assay
[4] = in HCT-8 cells, 48 h, value (SD; n), read-out: C. hominis 48H Assay EC50 [µM] (SD; n)
[5] = HCT-8 cells, read-out: EC50 against C. parvum
[6] = in HCT-8 cells, value (SD; n), read-out: C. parvum 48H Assay EC50 [µM] (SD; n)

Structure (SMILES)	CC50 at 48 h ([1]; HCT-8 cells) [µM]	EC50 ([2]; HCT-8, same in vitro host cell line, read-out: EC50 against C. hominis) [µM]	EC50 [2, 4] [µM]	fold more potent against C. parvum than C. hominis ([3]; C. parvum vs C. hominis EC50)	EC50 [3, 5] [µM]	EC50 [3, 6] [µM]	EC99 against C. parvum [3] [nM]	CC50 at 48 h [1] [µM]
CC(C)/N=c1\cc2n(-c3ccc(Cl)cc3)c3ccccc3nc-2cc1Nc1ccc(Cl)cc1 [Clofazimine]	> 12.5	0.34	0.341	~ 20 fold	0.015	0.0149	30	
CCOc1ccc2cc(-c3nn(CC4CCN(C)CC4)c4ncnc(N)c34)ccc2c1 [BKI-1294]			0.457		0.4	0.388	2000	> 12.5
